{
  "source": "patent US10220040B2",
  "about": "“Compounds, compositions and methods useful for cholesterol mobilization” (Cerenis Therapeutics Holding SA, priority 2010, dated 2019)",
  "key": {"human P2Y13 receptor": {"target": "human P2Y13 receptor (Homo sapiens (Human), UniProt Q9BPV8)", "sequence (Q9BPV8 whole entry)": "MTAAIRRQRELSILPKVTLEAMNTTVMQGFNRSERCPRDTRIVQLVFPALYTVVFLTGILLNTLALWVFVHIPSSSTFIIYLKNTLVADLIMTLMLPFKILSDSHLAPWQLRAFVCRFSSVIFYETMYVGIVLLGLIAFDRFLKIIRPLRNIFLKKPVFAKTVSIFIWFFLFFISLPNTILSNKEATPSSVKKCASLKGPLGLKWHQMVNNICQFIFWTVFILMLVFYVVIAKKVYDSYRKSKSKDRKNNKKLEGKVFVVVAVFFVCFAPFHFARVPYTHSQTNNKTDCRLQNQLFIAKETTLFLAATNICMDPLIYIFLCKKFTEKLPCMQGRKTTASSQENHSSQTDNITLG", "experiment": "Ca++ flux agonist assay on P2Y13 receptor transfected 1321N1 cells", "format": "cell-based", "details": "Table 4, measured from data of Figure 2; comma is decimal sign", "experimental": "Compounds were assayed for their agonist activity on P2Y13 GPCR transfected cells using a Ca++ flux assay (associated to fluorescent dye detection) with the Reference Compound as positive reference. Two cell lines, 1321N1-P2Y13 stably expressing human P2Y13 receptor, and 1321N1 parental cell line as control, were used in this assay. 1321N1 Parental and 1321N1 P2Y13 were seeded into T25 flasks at 3 million cells per flask, respectively. Cells were incubated at 37 degrees Celsius in 5% CO2 overnight. The day after, cells were transfected with Gqi5 protein using Fugene transfection reagent (Roche's Fugene Reagent).\nAfter 24 hours of transfection, cells were collected from flasks and seeded in 384-well plates at 8000 cells per well. The assays were carried out 48 hours after Gqi5 transfection.\nMethods: The Ca++ flux assay was conducted according to the manufacturer's protocol (Molecular Devices FLIPR Calcium 4 Assay kit (R8142). Briefly, cell culture media were aspirated from the wells and replaced with 25 μL of Hank's buffer or PBS buffer. 25 μL of Ca++ dye was added into each assay well. The plate was incubated for 1 hour at 37° C. in 5% CO2. After the incubation, the plate was transferred to FlexStation III (FlexStation III (Molecular Devices)). The compounds were automatically injected into each well."}, "New Zealand rabbits": {"system": "New Zealand rabbits", "experiment": "Plaque regression in high-cholesterol diet fed New Zealand rabbits", "format": "in vivo, rabbit", "experimental": "FIG. 20A-M: Plaque regression in rabbits treated with Compound IIa. New Zealand rabbits (n=15) with atherosclerotic plaques developed after 2 months of high-cholesterol diet, were treated with Compound IIa at 30, 100 and 300 μg/kg once a day by oral gavage for 4 weeks. FIG. 20A: lipids extracted from aortas were analyzed by GC/MS for cholesterol concentration. Dark bars, unesterified cholesterol; superimposed gray bars, total cholesterol. *p<0.05. FIG. 20B, FIG. 20C and FIG. 20D: Plasma VLDL cholesterol, LDL cholesterol and HDL cholesterol were resolved as described in FIG. 2. The results are expressed as the percentage from pre-dose. FIG. 20E: apoB concentration in plasma was determined by Western blot analysis. FIG. 20F: triglycerides were measured in the plasma using the kit from Biolabo. FIG. 20G: the bile acids concentrations in liver were determined using an enzymatic kit. FIG. 20H and FIG. 20K: hematoxylin/eosin staining of aortas from rabbits dosed with vehicle (FIG. 20H) or Compound IIa at 300 μg/kg (FIG. 20K). FIG. 20I and FIG. 20L: smooth muscle cells staining of aortas from rabbits dosed with vehicle (FIG. 20I) or Compound IIa at 300 μg/kg (FIG. 20L). FIG. 20J and FIG. 20M: macrophages and monocytes staining of aortas from rabbits dosed with vehicle (FIG. 20J) or Compound IIa at 300 μg/kg (FIG. 20M).\nFIG. 21A-F: Functionality of plasma from high-cholesterol diet fed rabbits treated with Compound IIa. FIG. 21A: ApoA-I concentration in plasma was measured by SELDI-TOF analysis. Purified ApoA-I from homo-sapiens (MWSELDI=28083 Da) was used as a reference for determination of rabbit ApoA-I (MWSELDI=27838 Da) concentration. The results are expressed as the percentage from pre-dose. FIG. 21B: ApoA-I mRNA level was determined using the QPCR technique. Note the overall decrease in the HDL particle size of treated animals. FIG. 21C; HDL from rabbit plasma were separated according to the size of the different HDL particles using the Lipoprint® system. The data were expressed as the percentage for each HDL subpopulation set to the HDL population in the pre-dose animals. Two main HDL particle sub-populations were quantified (high and intermediate—dark and gray bars respectively). FIG. 21D: example of lipoprotein profiles of rabbit treated with vehicle (gray line) and with Compound IIa (300 μg/kg, dark line) using the Lipoprint® separation technique. FIG. 21E and FIG. 21F: determination of cholesterol efflux capacity of plasma and rabbit HDL, respectively, using pre-loaded [^3H]-cholesterol-oxLDL macrophages. The results are expressed as a percentage of cholesterol efflux. *p<0.05, **p<0.005.\nAfter 2 months of High Cholesterol Diet feeding (0.5% cholesterol) and a wash-out period of 2 weeks, the animals were treated (by oral gavage) once day with Compound IIa at 30, 100 and 300 μg/kg for 4 weeks. Blood samples were collected before the dose administration on day 0 and after 4 weeks of administrations of Compound IIa. After final bleeding, the liver, gallbladder, heart, thoracic and abdominal aorta from heart (left ventricle) to iliac arteries were sampled.\nRabbit aortas were fixed in neutral formalin buffer and embedded in paraffin. Longitudinal 3 μm sections were stained with Hematoxylin-Eosin-Saffron for histology analysis. The tissue sections were deparaffinized and incubated in protein-free block to inhibit the nonspecific binding of primary monoclonal antibodies used for the immunostaining of rabbit monocytes and macrophages (RAM11 obtained from Dako Corp. 1:100 dilution) and smooth muscle cell-specific actin (HHF35 obtained from Dako Corp. 1:100 dilution). Secondary biotinylated […] antibody was used at 1:300 dilution (Dako).\nThe issue of whether stimulation of the P2Y13r pathway could affect the regression of atherosclerosis pre-induced in the high-cholesterol diet fed rabbits was also addressed. […]"}, "mice": {"system": "mice", "experiment": "Bile acids physiology after one week daily oral treatment", "format": "in vivo", "details": "oral gavage once daily for a week (0.03 mg/kg)", "experimental": "FIG. 13A-B: Single-dose effect of Compound IIa on bile acids secretion after one week treatment. Mice were treated daily with Compound IIa (0.03 mg/kg) by oral gavage. On the day of sacrifice, the mice were fasted for 3 hours followed by an oral gavage (same concentration). 4 hours later the bile content was analyzed. FIG. 13A: data are expressed as the concentration of bile acids. FIG. 13B: data are expressed as the pool of bile acids per mouse weight (*p<0.05). Group of animals n=10.\nIn the previous experiments, illustrative compounds of the invention were administrated once and the impact on bile physiology was measured after 6 hours. Compound IIa was administrated by oral gavage once daily for a week to allow observation of the consequences on bile physiology of a longer treatment. On the day of sacrifice, the conditions were similar to the dose response experiments. The net impact of Compound IIa on the bile secretion was observed."}, "[1]": {"details": "orally, up to 0.3 mg/kg for 4 weeks"}},
  "data": [
    {"smiles": "CN(C)c1ncc(CN2CCC(c3cc(O)nc(N4CCOCC4)n3)CC2)cn1", "note": "[Compound IIa, 6-[1-(2-Dimethylaminopyrimidin-5-ylmethyl)-piperidin-4-yl]-2-morpholin-4-yl-pyrimidin-4-ol]", "values": [
      {"measurement": "EC50", "setting": "human P2Y13 receptor", "value": 40.3, "unit": "µM"},
      {"measurement": "regression of atherosclerotic plaques in aorta (decrease of cholesterol content of the entire artery)", "setting": "New Zealand rabbits; orally, doses up to 0.3 mg/kg for 4 weeks", "value": 30, "unit": "%"},
      {"measurement": "HDL cholesterol and rabbit apoA-I (HPLC, SELDI-TOF)", "setting": "New Zealand rabbits; [1]", "value": "trend towards an increase"},
      {"measurement": "VLDL and LDL cholesterol", "setting": "New Zealand rabbits; [1]", "value": "decreased slightly"},
      {"measurement": "pre-established atherosclerotic plaques in aortas of rabbits fed with cholesterol chow", "setting": "New Zealand rabbits; summary statement", "value": "induced the regression"},
      {"measurement": "apoA-I mRNA expression in the liver", "setting": "New Zealand rabbits; treated rabbits", "value": "increase"},
      {"measurement": "bile acid content in the liver", "setting": "New Zealand rabbits; treated rabbits", "value": "increased"},
      {"measurement": "mRNA expressions of LDL receptors and SR-BI in the liver (QPCR)", "setting": "New Zealand rabbits; treated rabbits", "value": "No change"},
      {"measurement": "plasma apoA-I", "setting": "New Zealand rabbits; treated rabbits", "value": "increase"},
      {"measurement": "volume of the individual bile compared to vehicle treatment", "setting": "mice", "value": "significant increase"}
    ]}
  ]
}
